# From patent US7064139B2, “Method for treating retroviral infections” (Uniroyal Chemical Company, Inc., priority 2001, dated 2006)
# Where two headings read alike, the source gives them in different places.
# Experiments:
# HIV-2 (ROD) = test: Inhibition of HIV-2 syncytium formation in CEM cells; assay type: cell-based; conditions: for HIV-2 % Protection: protection of CEM cells against virus-induced cytopathicity at the concentration in the previous column; for EC50: Human immunodeficiency virus 2, CCRF-CEM, read-out: EC50 (ug/ml) HIV-2
# Excerpt: (§1) The cell type used to determine activity of the compounds of the invention herein, i.e., the test compounds, against HIV was human T-lymphoblast (CEM) cells obtained from the American Tissue Cell Culture Collection (Rockville, Md.). HIV-1 (IIIB) was originally obtained from the culture of persistently HIV-1 infected H9 cells and was provided by R. C. Gallo and M. Popovic (National Cancer Institute, National Institutes of Health, Bethesda, Md.). HIV-2 (ROD) was originally obtained from L. M. Montagnier (Pasteur Institute, Paris, France).
# (§2) To determine the antiviral activity of the test compounds, CEM cells were suspended at a cell density of approximately 300,000 cells per ml of culture medium and infected with approximately 100 CCID50 (100 CCID50 being the 50% cell culture infective dose) of HIV-1 (IIIB) or HIV-2 (ROD)). Then 100 μl of the infected cell suspensions was added to 200 μl micro titer plate wells containing 100 μl of appropriate serial (5-fold) dilutions of the test compounds. The inhibitory effect of the test compounds on HIV-1 or HIV-2 syncytium formation in CEM cells was examined microscopically on day four post infection.
# (§3) In these cases, the percent protection of the cells against virus-induced cytopathicity by the test compounds at the indicated compound concentration in the previous column is given.
# Davis strain CMV = test: Reduction of CMV-induced cytopathicity in HEL cells; assay type: cell-based, human cytomegalovirus (HCMV); conditions: for Antiviral % Inhibition Davis strain CMV: estimate of percent protection at the concentration in the previous column; for EC50: read-out: Antiviral EC50 (ug/ml) Davis strain CMV
# Description: Confluent HEL cells grown in […] microtiter plates were inoculated with CMV at an input of 100 PFU (plaque forming units) per well. After a one to two hour incubation period, residual virus was removed and the infected cells were further incubated with MEM (Minimal Essential Medium) (supplemented with 2% inactivated Fetal Calf Serum (FCS), […], and 0.3% sodium bicarbonate) containing varying concentrations of the test compounds. Antiviral activity was expressed as EC50 (50% effective concentration), or test compound concentration required to reduce virus-induced cytopathicity after seven days by 50% compared to the untreated control.
# In some cases, the compounds had considerable cytotoxicity against HEL cells, which made determination of the EC50 difficult. In these cases, an estimate of the percent protection at the compound concentration indicated in the previous columns is given.
# HIV-1 (IIIB) = test: microbe, parasite or virus in culture; assay type: cell-based; conditions: for HIV-1 % Protection: protection of CEM cells against virus-induced cytopathicity at the concentration in the previous column; for EC50: Human immunodeficiency virus 1, IIIB, CCRF-CEM, read-out: EC50 (ug/ml) HIV-1
# Excerpt: as §1, §2, §3
# [1] = CEM cells, syncytium formation, day four post infection
# [2] = HEL cells, virus-induced cytopathicity after seven days
# [3] = Human betaherpesvirus 5, 168 h, HEL cells, virus-induced cytopathicity after seven days
SMILES,EC50 (ug/ml) HIV-2 (HIV-2 (ROD); [1]),HIV-2 % Protection (HIV-2 (ROD)),Antiviral EC50 (ug/ml) Davis strain CMV (Davis strain CMV; [2]),EC50 (ug/ml) HIV-1 (HIV-1 (IIIB); [1]),Antiviral % Inhibition Davis strain CMV (Davis strain CMV; HEL cells),also measured
Cc1ccc(C)c(C(C)[S+]([O-])c2cccc[n+]2[O-])c1 (stereo not drawn) [Compound 103],>0.8 µg/mL,0.0%,4.3 µg/mL,>.8 µg/mL,–,HIV-1 % Protection (HIV-1 (IIIB)): 0.0%
O=S(=O)(Cc1ccccc1)c1ccccn1 [Compound 143],50.0 µg/mL,–,>50 µg/mL,30.00 µg/mL,0.0%,–
Cc1ccc(C)c(C[S+]([O-])c2ccc(Cl)c[n+]2[O-])c1 (stereo not drawn) [Compound 153],3.0 µg/mL,–,11.5 µg/mL,2.10 µg/mL,–,–
O=[N+]([O-])c1cc(CS(=O)(=O)c2cccc[n+]2[O-])cc([N+](=O)[O-])c1 [Compound 65],3.5 µg/mL,–,5.0 µg/mL,2.80 µg/mL,–,–
Cc1ccc(CS(=O)(=O)c2c(C)ccc[n+]2[O-])c(C)c1 [Compound 83],≧20 ug/ml,37.5%,12.0 µg/mL,6.00 µg/mL,–,–
"O=S(=O)(Cc1ccc(Cl)c(Cl)c1)c1cccc[n+]1[O-] [Compound 37, 2-(3,4-dichlorobenzylsulfonyl)-pyridine-N-oxide]",–,–,–,–,30.0%,EC50 (HIV-2 (ROD); [1]): 1.3 µg/mL; EC50 (Davis strain CMV; [3]): > 5 µg/mL; EC50 (HIV-1 (IIIB); [1]): 1 µg/mL
"Cc1ccc(C)c(C(Cl)S(=O)(=O)c2ccccn2)c1 (stereo not drawn) [Compound 106, 2-((2,5-dimethylphenyl)chloromethylsulphonyl)pyridine]",–,0.0%,–,–,–,EC50 (HIV-2 (ROD); [1]): > 4 µg/mL; EC50 (Davis strain CMV; [3]): 20 µg/mL; EC50 (HIV-1 (IIIB); [1]): 0.9 µg/mL
N#Cc1ccccc1CS(=O)(=O)c1cccc[n+]1[O-] [Compound 24],9.5 µg/mL,–,>5 µg/mL,7.00 µg/mL,30.0%,–
Cc1ccc(C[S+]([O-])c2cccc[n+]2[O-])cc1C (stereo not drawn) [Compound 89],2.8 µg/mL,–,20.0 µg/mL,2.50 µg/mL,–,–
"CCc1cccc2c(C)cc(S(=O)(=O)C(C)c3ccccc3)nc12 (stereo not drawn) [Compound 107, 8-ethyl-4-methyl-2-[(1-phenylethyl)sulfonyl]-quinoline]",–,–,–,–,0.0%,EC50 (HIV-2 (ROD); [1]): > 100 µg/mL; EC50 (Davis strain CMV; [3]): > 20 µg/mL; EC50 (HIV-1 (IIIB); [1]): 0.65 µg/mL
COc1ccc(C)cc1CSc1cccc[n+]1[O-] [Compound 93],≧20 ug/ml,37.5%,>50 µg/mL,8.00 µg/mL,0.0%,–
Cc1ccc[n+]([O-])c1[S+]([O-])Cc1c(Cl)cccc1Cl (stereo not drawn) [Compound 138],>100.0 µg/mL,0.0%,>50 µg/mL,>100 µg/mL,20.0%,HIV-1 % Protection (HIV-1 (IIIB)): 0.0%
"Cc1ccc(C)c(CSc2ccccn2)c1 [Compound 148, 2-((2,5-dimethylphenyl)methylthio)pyridine]",–,–,–,–,–,"EC50 (HIV-2 (ROD)): > 20 µg/mL; EC50 (Davis strain CMV; Human betaherpesvirus 5, HEL, 168 h): 0.4 µg/mL; EC50 (HIV-1 (IIIB)): > 20 µg/mL"
CC(C)Cc1ccc(CS(=O)(=O)c2cccc[n+]2[O-])cc1 [Compound 55],2.6 µg/mL,–,3.2 µg/mL,≧4 ug/ml,–,HIV-1 % Protection (HIV-1 (IIIB)): 37.5%
COc1ccc(OC)c(CS(=O)(=O)c2cccc[n+]2[O-])c1 [Compound 47],35.0 µg/mL,–,>50 µg/mL,10.00 µg/mL,20.0%,–
